This test concerns the target T1, human recombinant mGluR5 (Homo sapiens, UniProt P41594).
T1 construct: expressed in transfected cells; host or cells: HEK 293 cell line cultured with tetracycline, hygromycin and geneticin; tetracycline removed 3-7 days before the assay
The test can be described thus: positive modulation of mGluR5, calcium based FLIPR assay in HEK 293 cells. The conditions noted are these: HEK 293 cell line expressing human recombinant mGluR5; EC50 of the modulation of the glutamate response (glutamate approx. 5% basal stimulation); peak height of Ca release fluorescence signal. In a few lines:
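Potentiation EC50 derived by nonlinear fit of peak calcium fluorescence after a near-5%-maximal glutamate challenge, following 5 min compound exposure (intrinsic activity also recorded). Dye-loaded recombinant human mGluR5 HEK 293 cells in Ringer solution pH 7.4, 1% DMSO; plate controls were vehicle (100%) and 10 μM CDPPB (200%).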
T1 sequence (P41594 21-1212): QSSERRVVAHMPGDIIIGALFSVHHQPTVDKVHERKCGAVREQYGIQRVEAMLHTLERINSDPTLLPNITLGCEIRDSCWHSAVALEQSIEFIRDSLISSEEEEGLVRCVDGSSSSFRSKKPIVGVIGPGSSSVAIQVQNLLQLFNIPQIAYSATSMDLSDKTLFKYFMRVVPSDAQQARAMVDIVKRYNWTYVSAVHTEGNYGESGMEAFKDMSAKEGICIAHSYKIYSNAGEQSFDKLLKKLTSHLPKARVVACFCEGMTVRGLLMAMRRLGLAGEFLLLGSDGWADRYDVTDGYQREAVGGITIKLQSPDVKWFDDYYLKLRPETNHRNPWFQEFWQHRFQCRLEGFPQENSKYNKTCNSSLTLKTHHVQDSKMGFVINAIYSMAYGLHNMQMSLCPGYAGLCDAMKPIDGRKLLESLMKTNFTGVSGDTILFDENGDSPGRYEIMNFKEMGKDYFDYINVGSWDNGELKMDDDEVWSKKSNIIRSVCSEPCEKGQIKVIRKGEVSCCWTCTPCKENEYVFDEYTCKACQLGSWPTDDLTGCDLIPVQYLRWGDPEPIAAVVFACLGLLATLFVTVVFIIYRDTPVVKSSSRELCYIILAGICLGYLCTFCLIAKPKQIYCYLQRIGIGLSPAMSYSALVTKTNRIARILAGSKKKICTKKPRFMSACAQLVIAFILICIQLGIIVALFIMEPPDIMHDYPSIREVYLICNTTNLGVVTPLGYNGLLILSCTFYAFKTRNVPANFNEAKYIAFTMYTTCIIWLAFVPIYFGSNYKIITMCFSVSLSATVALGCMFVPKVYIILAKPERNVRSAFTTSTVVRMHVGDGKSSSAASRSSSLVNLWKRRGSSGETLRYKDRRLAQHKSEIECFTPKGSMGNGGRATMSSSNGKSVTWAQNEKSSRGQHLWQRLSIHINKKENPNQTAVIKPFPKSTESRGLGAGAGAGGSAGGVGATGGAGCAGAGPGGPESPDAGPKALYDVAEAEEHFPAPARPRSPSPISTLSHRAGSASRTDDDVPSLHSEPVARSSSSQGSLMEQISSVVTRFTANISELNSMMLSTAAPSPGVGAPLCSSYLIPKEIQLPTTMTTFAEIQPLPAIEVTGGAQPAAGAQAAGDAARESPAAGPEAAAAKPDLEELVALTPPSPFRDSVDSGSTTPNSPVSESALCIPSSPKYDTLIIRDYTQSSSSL
The EC50 is the concentration at which the effect is half-maximal. Consider `CC(C)Nc1cc(N2CCN(C(=O)Cn3nc(-c4ccc(F)cc4)nc3-c3ccc(F)cc3)CC2)ncn1` [Example 07.08.07.], for which the EC50 was 151 nM.
In the case of `C=C(C)c1nc(-c2ccccc2)nn1CC(=O)N1CCN(c2ncccn2)CC1` [Example 07.10.27.], the EC50 is 1470 nM.
With `COc1ccc(-c2nc(-c3ccc(F)cc3)nn2CC(=O)N2CCN(c3cc(C)ccn3)CC2)cc1` [Example 07.04.041.] the figure was 113 nM.
Consider `O=C(Cn1nc(-c2ccc(F)cc2)nc1-c1ccccc1)N1CCN(c2ccccn2)CC1` [Example 07.10.40.], for which the EC50 came out at 128 nM.
With `CC(C)c1ccc(-c2nc(-c3ccccc3)nn2CC(=O)N2CCN(c3ncccn3)CC2)cc1` [Example 07.10.20.], the EC50 was determined as 35 nM.
On to `CCCc1nc(-c2ccc(F)c(C)c2)nn1CC(=O)N1CCN(c2ccccn2)CC1` [Example 07.04.083.], for which the EC50 was 497 nM.
Consider `COc1cc(N2CCN(C(=O)Cn3nc(-c4ccccc4)nc3-c3ccccc3)CC2)ncn1` [Example 07.04.019.], for which the EC50 is 1090 nM.
On to `CCC(C)c1nc(-c2ccc(F)c(C)c2)nn1CC(=O)N1CCN(c2cc(C)ccn2)CC1` (stereo not shown) [Example 07.04.099.], for which the concentration for a half-maximal effect (EC50) was determined as 499 nM.
Turning to `Cc1cccnc1N1CCN(C(=O)Cn2nc(-c3ccc(F)cc3)nc2-c2ccc(F)cc2)CC1` [Example 07.02.04.], the EC50 was 1060 nM.
As for `CN(CCO)c1cc(N2CCN(C(=O)Cn3nc(-c4ccc(F)cc4)nc3-c3ccc(F)cc3)CC2)ncn1` [Example 07.08.09.], the EC50 worked out at 332 nM.
The same measure for `COCc1cccc(-c2nc(-c3ccccc3)n(CC(=O)N3CCN(c4ncccn4)CC3)n2)c1` [Example 07.10.08.]: 181 nM; for `Cc1ccnc(N2CCN(C(=O)Cn3nc(-c4ccccc4)nc3-c3ccc(F)c(C)c3)CC2)c1` [Example 07.04.075.]: 657 nM; for `COc1cnc(N2CCN(C(=O)Cn3nc(-c4ccc(F)cc4)nc3-c3ccc(F)cc3)CC2)nc1` [Example 07.04.001., 2-(3,5-Bis-(4-fluoro-phenyl)-(1,2,4)triazol-1-yl)-1-(4-(5-methoxy-pyrimidin-2-yl)-piperazin-1-yl)-ethanone]: 25 nM.

The record behind these values is US8889677B2, “Substituted triazoles useful as mGlu5 receptor modulators” (Boehringer Ingellheim International GmbH, priority 2012, dated 2014).
